Results from patent publication US5811442A, “Pharmaceutical compositions for the treatment of conditions associated with decreased blood flow” (priority 1997, dated 1998).
Like-named read-outs stand apart in the source and are kept apart here.

What was measured:
[1] = system: β2-containing nicotinic acetylcholine receptor subtypes; assay: Determination of Dopamine Release (synaptosomes); format: cell-based; settings: for EC50: read-out: Dopamine Release EC50
Excerpt: Determination of Dopamine Release
Reported EC50 is expressed in nM and Emax represents the amount released relative to nicotine.

ganglionic receptors = assay: Determination of Interaction with Ganglia (maximal activation of ganglionic receptors); format: cell-based; settings: percentage of the maximal activation induced by (S)-(-)-nicotine
Excerpt: Typical ganglionic receptors include α3β4 receptor subtypes, (i.e., non-β2 containing receptor subtypes).
Determination of Interaction with Ganglia
The ganglionic tissues employed are representative of those which are believed absent of receptor subtypes containing β2-subunits.

muscle receptors = biological target: T1, muscle receptors (Homo sapiens, UniProt P02708+P07510+Q07001); assay: cell-based; format: cell-based; settings: for Muscle Effect (Emax): percentage of the maximal activation induced by (S)-(-)-nicotine; for Emax: read-out: Muscle Effect (Emax)
T1 construct: endogenous in cells
Excerpt: Determination of Interaction with Muscle
The muscle tissues employed are representative of those which are believed absent of receptor subtypes containing β2-subunits.

α4β2 receptor subtypes = biological target: T2, α4β2 receptor subtypes (Rattus norvegicus, UniProt P09483+P12390); assay: Determination of Binding to Relevant Receptor Sites; settings: calculated from IC50 values using the method of Cheng et al.
T2 construct: from tissue
Excerpt: Receptor binding constants provide a measure of the ability of the compound to bind to relevant receptor sites of certain cells of the patient.
Determination of Binding to Relevant Receptor Sites

[2] = system: nicotinic acetylcholine receptor subtypes including β2-subunits; settings: reported; cited from earlier work
[3] = read-out: Dopamine Release Emax
[4] = read-out: Dopamine Release Emax, percentage of release obtained with (S)-(-)-nicotine concentration resulting in maximal effects

T1 sequence (P02708 21-457): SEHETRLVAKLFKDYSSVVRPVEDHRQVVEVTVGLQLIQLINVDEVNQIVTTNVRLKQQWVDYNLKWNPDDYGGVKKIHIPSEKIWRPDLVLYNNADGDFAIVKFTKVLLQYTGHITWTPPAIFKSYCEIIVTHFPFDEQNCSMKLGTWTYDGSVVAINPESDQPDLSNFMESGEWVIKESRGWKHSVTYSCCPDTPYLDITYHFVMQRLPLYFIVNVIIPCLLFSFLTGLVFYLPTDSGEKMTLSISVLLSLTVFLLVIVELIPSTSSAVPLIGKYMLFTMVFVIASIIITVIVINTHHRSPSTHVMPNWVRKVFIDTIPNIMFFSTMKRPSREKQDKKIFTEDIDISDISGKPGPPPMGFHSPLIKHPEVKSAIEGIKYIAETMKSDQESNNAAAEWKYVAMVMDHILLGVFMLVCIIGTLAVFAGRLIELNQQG
T1 sequence (P07510 23-517): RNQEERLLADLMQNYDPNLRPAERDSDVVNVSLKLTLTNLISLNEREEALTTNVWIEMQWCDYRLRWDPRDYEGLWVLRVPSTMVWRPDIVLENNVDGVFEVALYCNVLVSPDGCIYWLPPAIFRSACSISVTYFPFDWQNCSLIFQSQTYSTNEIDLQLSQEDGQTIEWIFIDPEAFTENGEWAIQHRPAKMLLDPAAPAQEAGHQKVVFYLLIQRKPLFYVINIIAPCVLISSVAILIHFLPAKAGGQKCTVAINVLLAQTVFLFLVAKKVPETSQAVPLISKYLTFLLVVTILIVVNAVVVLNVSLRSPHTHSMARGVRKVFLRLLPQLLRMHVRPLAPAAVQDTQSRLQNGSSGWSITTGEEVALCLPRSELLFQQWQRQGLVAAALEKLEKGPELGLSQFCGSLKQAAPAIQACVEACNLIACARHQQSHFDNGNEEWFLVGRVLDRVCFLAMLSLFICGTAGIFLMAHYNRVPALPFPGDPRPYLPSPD
T1 sequence (Q07001 22-517): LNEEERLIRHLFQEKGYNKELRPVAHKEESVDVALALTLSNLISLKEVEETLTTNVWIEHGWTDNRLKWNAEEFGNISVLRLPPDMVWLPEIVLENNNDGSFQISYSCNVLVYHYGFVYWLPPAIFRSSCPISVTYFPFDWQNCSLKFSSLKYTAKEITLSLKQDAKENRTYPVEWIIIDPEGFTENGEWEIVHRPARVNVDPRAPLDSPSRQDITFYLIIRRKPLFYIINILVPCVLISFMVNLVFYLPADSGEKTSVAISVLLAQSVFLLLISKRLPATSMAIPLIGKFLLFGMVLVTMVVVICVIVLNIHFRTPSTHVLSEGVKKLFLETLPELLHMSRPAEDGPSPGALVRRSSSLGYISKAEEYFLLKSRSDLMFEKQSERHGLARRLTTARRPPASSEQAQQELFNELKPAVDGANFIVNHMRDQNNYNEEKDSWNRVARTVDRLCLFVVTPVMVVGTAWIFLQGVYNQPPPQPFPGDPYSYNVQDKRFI
T2 sequence (P09483 31-630): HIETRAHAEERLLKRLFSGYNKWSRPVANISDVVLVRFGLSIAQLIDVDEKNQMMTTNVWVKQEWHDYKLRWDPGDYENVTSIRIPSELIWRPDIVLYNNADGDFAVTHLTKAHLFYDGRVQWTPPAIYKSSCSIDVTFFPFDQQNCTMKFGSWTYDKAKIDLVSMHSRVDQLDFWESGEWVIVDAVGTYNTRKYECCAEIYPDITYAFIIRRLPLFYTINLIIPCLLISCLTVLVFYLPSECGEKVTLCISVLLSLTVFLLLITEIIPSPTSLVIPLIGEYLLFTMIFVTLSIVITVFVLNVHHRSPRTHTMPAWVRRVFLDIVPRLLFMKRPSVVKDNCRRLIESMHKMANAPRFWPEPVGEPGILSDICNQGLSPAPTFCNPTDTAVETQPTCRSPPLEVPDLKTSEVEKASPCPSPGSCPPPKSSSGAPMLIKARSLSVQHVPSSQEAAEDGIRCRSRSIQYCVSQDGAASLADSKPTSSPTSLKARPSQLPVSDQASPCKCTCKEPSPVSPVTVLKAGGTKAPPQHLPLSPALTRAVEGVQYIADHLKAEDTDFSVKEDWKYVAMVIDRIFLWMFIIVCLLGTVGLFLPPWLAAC
T2 sequence (P12390 25-500): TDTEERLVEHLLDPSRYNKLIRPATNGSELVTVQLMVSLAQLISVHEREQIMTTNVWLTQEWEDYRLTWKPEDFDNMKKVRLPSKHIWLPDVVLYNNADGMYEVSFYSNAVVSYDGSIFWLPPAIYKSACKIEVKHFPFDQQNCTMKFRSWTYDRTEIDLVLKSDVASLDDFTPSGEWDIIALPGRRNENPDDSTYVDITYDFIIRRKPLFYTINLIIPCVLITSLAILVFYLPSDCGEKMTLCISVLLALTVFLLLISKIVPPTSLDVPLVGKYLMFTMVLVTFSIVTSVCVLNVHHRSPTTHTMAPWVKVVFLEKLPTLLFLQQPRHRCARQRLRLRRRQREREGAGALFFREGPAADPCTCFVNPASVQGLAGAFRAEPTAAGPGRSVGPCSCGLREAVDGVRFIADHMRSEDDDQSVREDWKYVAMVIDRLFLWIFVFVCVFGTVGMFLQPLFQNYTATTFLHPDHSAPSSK

## CNCC/C=C/c1ccc(C)nc1 [Sample No. 1, (E)-N-methyl-4[3-(6-methylpyridin)yl]-3-buten-1-amine monofumarate]
[1]
  EC50: 10000 nM
[1]; [3]
  Emax: 115%
Ganglionic receptors
  Ganglion Effect (Emax): 4 % nicotine

## CNCC/C=C/c1cncc(-c2ccccc2)c1 [Sample No. 3, (E)-N-Methyl-4-[3-(5-phenylpyridin)yl]-3-buten-1-amine]
[1]
  EC50: > 100000 nM
[1]; [4]
  Emax: > 160%
Ganglionic receptors
  Ganglion Effect (Emax): 0 % nicotine
Muscle receptors
  Muscle Effect (Emax): 8 % nicotine

## COc1cncc(/C=C/CCN)c1 [Sample No. 4, (E)-4-[3-(5-methoxypyridin)yl]-3-buten-1-amine monofumarate]
[1]
  EC50: 3800 nM
Ganglionic receptors
  Ganglion Effect (Emax): 0 % nicotine

## CNCC/C=C/c1cncc(N)c1 [Sample No. 5, (E)-N-methyl-4-[3-(5-aminopyridin)yl]-3-buten-1-amine]
[1]
  EC50: 2000 nM
[1]; [4]
  Emax: 85%
Ganglionic receptors
  Ganglion Effect (Emax): 4 % nicotine
Muscle receptors
  Muscle Effect (Emax): 4 % nicotine

## CNCC/C=C/c1cncc(OCc2ccccc2)c1 [Sample No. 6, (E)-N-Methyl-4-[3-(5-benzyloxypyridin)yl]-3-buten-1-amine]
[1]
  EC50: 4000 nM
[1]; [4]
  Emax: 33%
Ganglionic receptors
  Ganglion Effect (Emax): 0 % nicotine
Muscle receptors
  Muscle Effect (Emax): 12 % nicotine

## CNCC/C=C/c1cncc(Br)c1 [Sample No. 7, (E-N-methyl-4-[3-5-bromopyridin)yl]-3-buten-1-amine monofumarate]
[1]
  EC50: 2400 nM
[1]; [4]
  Emax: 107%
Ganglionic receptors
  Ganglion Effect (Emax): 11 % nicotine
α4β2 receptor subtypes
  Ki: 79 nM
Muscle receptors
  Emax: 8%

## CNCC/C=C/c1cncc(OC)c1 [Sample No. 8, (E)-N-methyl-4-[3-(5-methoxypyridin)yl]-3-butene-1-amine]
[1]
  EC50: 191 nM
[1]; [4]
  Emax: 103%
Ganglionic receptors
  Ganglion Effect (Emax): 0 % nicotine
α4β2 receptor subtypes
  Ki: 10 nM
Muscle receptors
  Muscle Effect (Emax): 0 % nicotine

## CCOc1cncc(/C=C/CCNC)c1 [Sample No. 9, (E)-N-methyl-4-[3-(5-ethoxypyridin)yl]-3-butene-1-amine]
[1]; dopamine release
  EC50: 287 nM
[1]; percentage of release obtained with (S)-(-)-nicotine concentration resulting in maximal effects
  Dopamine Release Emax: 124%
Ganglionic receptors
  Ganglion Effect (Emax): 0 % nicotine
α4β2 receptor subtypes
  Ki: 9 nM
Muscle receptors
  Muscle Effect (Emax): 0 % nicotine

## CNC(C)C/C=C/c1cccnc1 (stereo not shown) [Sample No. 10, (E)-N-methyl-5-(3-pyridinyl)-4-penten-2-amine]
[1]
  EC50: 21400 nM
[1]; [4]
  Emax: 182%
Ganglionic receptors
  Ganglion Effect (Emax): 6 % nicotine
α4β2 receptor subtypes
  Ki: 82 nM
Muscle receptors
  Muscle Effect (Emax): 4 % nicotine

## CNCC/C=C/c1cncnc1 [Sample No. 11, (E)-N-methyl-4-(5-pyrimidinyl)-3-buten-1-amine]
Ganglionic receptors
  Ganglion Effect (Emax): 0 % nicotine
Muscle receptors
  Emax: 12%

## CNCC/C=C\c1cccnc1 [Sample No. 12, (Z)-metanicotine monofumarate]
[1]
  EC50: 8310 nM
[1]; [3]
  Emax: 96%

## NCC/C=C/c1cncc(Br)c1 [Sample No. 13, (E)-4-[3-(5-Bromopyridin)yl]-3-buten-1-amine Hemifumarate]
[1]
  EC50: 49 nM
[1]; [4]
  Emax: 29%
Ganglionic receptors
  Ganglion Effect (Emax): 0 % nicotine
α4β2 receptor subtypes
  Ki: 707 nM
Muscle receptors
  Emax: 5%

## CNCC/C=C/c1cccnc1 [Sample No. 14, (E)-metanicotine monofumarate]
[1]
  EC50: 1020 nM
[1]; [3]
  Emax: 90%

## CNCC/C=C/c1cncc(Oc2ccccc2)c1 [Sample No. 15, (E)-N-Methyl-4-[3-(5-phenoxypyridin)yl]-3-buten-1-amine]
[1]
  EC50: 114 nM
[1]; [4]
  Emax: 14%
Ganglionic receptors
  Ganglion Effect (Emax): < 15 % nicotine
Muscle receptors
  Muscle Effect (Emax): 5 % nicotine

## CNCC/C=C/c1cncc(OC(C)C)c1 [Sample No. 16, (E)-N-Methyl-4-[3-(5-isopropoxypyridin)yl]-3-buten-1-amine]
[1]
  EC50: 51 nM
[1]; [4]
  Emax: 57%
Ganglionic receptors
  Ganglion Effect (Emax): < 15 % nicotine
Muscle receptors
  Muscle Effect (Emax): 8 % nicotine

## CNCC/C=C/c1cncc(COC)c1 [Sample No. 17, (E)-N-Methyl-4-[3-(5-methoxymethylpyridin)yl]-3-buten-1-amine]
[1]
  EC50: 16000 nM
[1]; [4]
  Emax: 46%
Ganglionic receptors
  Ganglion Effect (Emax): 0 % nicotine
Muscle receptors
  Muscle Effect (Emax): 13 % nicotine

## NCC/C=C/c1cccnc1.O=C(O)/C=C/C(=O)O.O=C(O)/C=C/C(=O)O [Sample No. 18, (E)-4-(3-pyridinyl)-3-buten-1-amine difumarate]
[1]
  EC50: 5020 nM
[1]; [4]
  Emax: 81%
Ganglionic receptors
  Ganglion Effect (Emax): 23 % nicotine
Muscle receptors
  Muscle Effect (Emax): 15 % nicotine

## CCOc1cncc(/C=C/CCNC)c1 [Sample No. 19, (E)-N-Methyl-4-[3-(5-ethoxypyridin)yl]-3-buten-1-amine sesquifumarate]
[1]; dopamine release
  EC50: 276 nM
Ganglionic receptors
  Ganglion Effect (Emax): < 15 % nicotine
Muscle receptors
  Muscle Effect (Emax): 3 % nicotine

## CN1CCC[C@H]1c1cccnc1 [Sample No. C-1, (S)-(-)-nicotine, reference compound]
[1]; [3]
  Emax: 100%
Ganglionic receptors
  Ganglion Effect (Emax): 100 % nicotine
[2]
  affinity to bind to nicotinic acetylcholine receptor subtypes (in words): demonstrated affinity to bind to numerous nicotinic acetylcholine receptor subtypes including β2-subunits
